Results as given in ChEMBL document CHEMBL5465560, “Selectivity Literature for EUbOPEN Chemogenomic Library” (2024).
Each block holds one molecule with its values, some of them ahead of it.

Assays:
[1] = target: T1, Serine/threonine-protein kinase RIO1 (Homo sapiens) (UniProt Q9BRS2); details: at 10 µM
T1 sequence (whole entry): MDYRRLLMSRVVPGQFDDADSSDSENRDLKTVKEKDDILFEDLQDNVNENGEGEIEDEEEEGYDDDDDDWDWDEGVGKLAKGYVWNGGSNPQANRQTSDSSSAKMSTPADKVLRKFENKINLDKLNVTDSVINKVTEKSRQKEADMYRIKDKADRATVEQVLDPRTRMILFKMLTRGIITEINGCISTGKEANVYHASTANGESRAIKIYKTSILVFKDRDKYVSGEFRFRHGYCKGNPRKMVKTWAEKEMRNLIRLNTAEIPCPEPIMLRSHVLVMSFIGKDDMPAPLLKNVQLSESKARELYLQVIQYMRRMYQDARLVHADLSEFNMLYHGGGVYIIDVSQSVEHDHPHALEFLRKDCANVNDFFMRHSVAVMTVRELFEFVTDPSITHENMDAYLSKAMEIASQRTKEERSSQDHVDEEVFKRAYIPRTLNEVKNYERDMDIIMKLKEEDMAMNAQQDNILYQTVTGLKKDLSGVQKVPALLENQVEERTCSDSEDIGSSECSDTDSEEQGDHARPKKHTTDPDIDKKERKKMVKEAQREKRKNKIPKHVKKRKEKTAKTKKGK

[2] = target: Serine/threonine-protein kinase WNK4 (Homo sapiens) (UniProt Q96J92); assay: Selectivity interaction (KinomeScan (DiscoverX)) EUB0001049a WNK4; details: at 1 µM
Sequence of Serine/threonine-protein kinase WNK4 (Homo sapiens) (Q96J92 whole entry): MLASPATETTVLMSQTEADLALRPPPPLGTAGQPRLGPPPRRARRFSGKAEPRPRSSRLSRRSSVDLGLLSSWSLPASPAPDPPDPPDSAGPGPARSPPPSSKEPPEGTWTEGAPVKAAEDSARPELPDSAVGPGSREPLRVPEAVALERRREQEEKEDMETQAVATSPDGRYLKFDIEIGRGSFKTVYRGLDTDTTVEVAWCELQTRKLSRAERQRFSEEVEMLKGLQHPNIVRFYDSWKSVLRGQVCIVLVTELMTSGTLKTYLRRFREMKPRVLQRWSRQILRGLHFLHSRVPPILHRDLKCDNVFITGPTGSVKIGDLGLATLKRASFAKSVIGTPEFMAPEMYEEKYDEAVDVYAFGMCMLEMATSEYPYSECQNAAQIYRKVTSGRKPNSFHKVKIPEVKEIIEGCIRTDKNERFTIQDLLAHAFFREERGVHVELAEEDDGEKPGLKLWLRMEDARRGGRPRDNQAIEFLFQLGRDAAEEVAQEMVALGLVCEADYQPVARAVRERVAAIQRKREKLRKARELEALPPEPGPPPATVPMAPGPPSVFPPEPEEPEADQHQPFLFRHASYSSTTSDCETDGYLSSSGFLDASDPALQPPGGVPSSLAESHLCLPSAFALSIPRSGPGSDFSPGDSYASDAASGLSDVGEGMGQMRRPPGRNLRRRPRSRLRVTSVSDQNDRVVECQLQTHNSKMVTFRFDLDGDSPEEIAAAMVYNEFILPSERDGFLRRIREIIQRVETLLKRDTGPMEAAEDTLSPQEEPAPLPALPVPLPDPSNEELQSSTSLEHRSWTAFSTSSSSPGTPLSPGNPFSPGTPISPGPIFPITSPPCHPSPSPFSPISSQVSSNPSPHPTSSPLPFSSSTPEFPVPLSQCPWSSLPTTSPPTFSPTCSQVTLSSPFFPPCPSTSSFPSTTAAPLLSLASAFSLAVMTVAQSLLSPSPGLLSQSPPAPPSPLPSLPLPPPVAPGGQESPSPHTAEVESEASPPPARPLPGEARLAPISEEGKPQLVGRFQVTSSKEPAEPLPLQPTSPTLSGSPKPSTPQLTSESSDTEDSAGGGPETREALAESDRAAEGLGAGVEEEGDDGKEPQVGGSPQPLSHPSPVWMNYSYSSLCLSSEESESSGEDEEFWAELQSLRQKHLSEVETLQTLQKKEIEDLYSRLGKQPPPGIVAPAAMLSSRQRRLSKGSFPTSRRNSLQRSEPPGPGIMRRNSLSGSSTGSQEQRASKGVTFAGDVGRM

[3] = target: Mitogen-activated protein kinase kinase kinase 10 (Homo sapiens) (UniProt Q02779); assay: Selectivity interaction (KinomeScan (DiscoverX)) EUB0001049a MAP3K10; details: at 1 µM
Sequence of Mitogen-activated protein kinase kinase kinase 10 (Homo sapiens) (Q02779 whole entry, looked up): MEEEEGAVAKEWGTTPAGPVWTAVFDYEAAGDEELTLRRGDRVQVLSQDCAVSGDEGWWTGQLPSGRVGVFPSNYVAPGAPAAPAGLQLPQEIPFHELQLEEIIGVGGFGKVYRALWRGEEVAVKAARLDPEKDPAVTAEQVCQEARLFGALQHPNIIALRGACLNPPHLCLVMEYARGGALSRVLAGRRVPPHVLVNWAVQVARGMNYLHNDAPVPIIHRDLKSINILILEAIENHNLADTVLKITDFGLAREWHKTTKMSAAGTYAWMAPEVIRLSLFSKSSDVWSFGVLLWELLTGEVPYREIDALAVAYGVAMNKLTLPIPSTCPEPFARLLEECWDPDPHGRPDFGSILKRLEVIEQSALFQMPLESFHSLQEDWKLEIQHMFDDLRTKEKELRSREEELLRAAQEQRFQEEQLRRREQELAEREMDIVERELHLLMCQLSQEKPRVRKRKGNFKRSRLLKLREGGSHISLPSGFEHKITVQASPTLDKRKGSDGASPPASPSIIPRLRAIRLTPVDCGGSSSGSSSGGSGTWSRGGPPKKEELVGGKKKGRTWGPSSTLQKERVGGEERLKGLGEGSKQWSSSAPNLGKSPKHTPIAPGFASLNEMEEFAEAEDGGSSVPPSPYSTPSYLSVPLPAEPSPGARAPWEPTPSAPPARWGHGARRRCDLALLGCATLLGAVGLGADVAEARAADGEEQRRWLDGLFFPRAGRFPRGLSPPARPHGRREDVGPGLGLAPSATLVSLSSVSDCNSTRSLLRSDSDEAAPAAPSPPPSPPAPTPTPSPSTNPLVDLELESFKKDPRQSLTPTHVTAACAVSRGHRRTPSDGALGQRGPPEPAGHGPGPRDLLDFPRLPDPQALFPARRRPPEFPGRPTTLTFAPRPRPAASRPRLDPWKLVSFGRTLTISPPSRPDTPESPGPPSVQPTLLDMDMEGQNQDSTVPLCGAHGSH

[4] = target: Serine/threonine-protein kinase Nek7 (Homo sapiens) (UniProt Q8TDX7); assay: Selectivity interaction (Kinase panel (Z-LYTE Assay)) EUB0001632a NEK7; details: at 10 µM
Sequence of Serine/threonine-protein kinase Nek7 (Homo sapiens) (Q8TDX7 whole entry, looked up): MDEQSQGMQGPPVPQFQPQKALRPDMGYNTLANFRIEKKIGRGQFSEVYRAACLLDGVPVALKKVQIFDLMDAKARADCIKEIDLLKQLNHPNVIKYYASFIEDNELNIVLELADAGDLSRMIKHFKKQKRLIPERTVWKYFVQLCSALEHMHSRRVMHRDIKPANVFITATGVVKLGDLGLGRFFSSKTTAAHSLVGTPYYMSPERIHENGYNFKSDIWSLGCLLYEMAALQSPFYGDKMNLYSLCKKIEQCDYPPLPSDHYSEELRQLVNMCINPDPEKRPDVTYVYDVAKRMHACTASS

[5] = tested on: Tyrosine-protein kinase ABL1 (Homo sapiens), P00519 [F317I]; assay: (§1) Selectivity interaction (ProQinase) EUB0000171b ABL1
[6] = tested on: Tyrosine-protein kinase ABL1 (Homo sapiens), P00519 [E255K]; assay: as §1
[7] = tested on: Tyrosine-protein kinase ABL1 (Homo sapiens), P00519 [Q252H]; assay: as §1
[8] = tested on: Tyrosine-protein kinase ABL1 (Homo sapiens), P00519 [M351T]; assay: as §1
[9] = tested on: Tyrosine-protein kinase ABL1 (Homo sapiens), P00519 [H396P]; assay: as §1
[10] = tested on: Tyrosine-protein kinase ABL1 (Homo sapiens), P00519 [Y253F]; assay: as §1
[11] = target: Tyrosine-protein kinase ABL1 (Homo sapiens, UniProt P00519); assay: as §1
[12] = tested on: Tyrosine-protein kinase ABL1 (Homo sapiens), P00519 [T315I]; assay: as §1
[13] = tested on: Tyrosine-protein kinase ABL1 (Homo sapiens), P00519 [G250E]; assay: as §1
[14] = target: Dual specificity protein kinase CLK2 (Homo sapiens, UniProt P49760); assay: Selectivity interaction (KinomeScan (DiscoverX)) EUB0000092b CLK2; details: at 10 µM
Sequence of Dual specificity protein kinase CLK2 (P49760 whole entry, looked up): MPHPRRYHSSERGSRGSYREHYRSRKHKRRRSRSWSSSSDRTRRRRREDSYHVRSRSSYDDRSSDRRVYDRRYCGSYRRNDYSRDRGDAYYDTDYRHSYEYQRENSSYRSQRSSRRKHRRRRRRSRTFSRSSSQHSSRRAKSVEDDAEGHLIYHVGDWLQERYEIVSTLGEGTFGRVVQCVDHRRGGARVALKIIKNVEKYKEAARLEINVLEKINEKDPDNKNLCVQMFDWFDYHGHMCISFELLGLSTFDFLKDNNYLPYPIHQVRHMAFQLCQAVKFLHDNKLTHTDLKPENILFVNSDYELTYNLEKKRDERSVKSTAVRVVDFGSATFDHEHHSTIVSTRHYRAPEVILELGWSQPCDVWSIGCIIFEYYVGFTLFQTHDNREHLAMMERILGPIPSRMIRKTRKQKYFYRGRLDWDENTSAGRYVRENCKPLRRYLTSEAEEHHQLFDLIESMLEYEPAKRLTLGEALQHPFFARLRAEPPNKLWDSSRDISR

[15] = target: T2, Receptor-interacting serine/threonine-protein kinase 1 (Homo sapiens) (UniProt Q13546); assay: Selectivity interaction (KinomeScan (DiscoverX)) EUB0000655a RIPK1; details: at 10 µM
T2 sequence (whole entry): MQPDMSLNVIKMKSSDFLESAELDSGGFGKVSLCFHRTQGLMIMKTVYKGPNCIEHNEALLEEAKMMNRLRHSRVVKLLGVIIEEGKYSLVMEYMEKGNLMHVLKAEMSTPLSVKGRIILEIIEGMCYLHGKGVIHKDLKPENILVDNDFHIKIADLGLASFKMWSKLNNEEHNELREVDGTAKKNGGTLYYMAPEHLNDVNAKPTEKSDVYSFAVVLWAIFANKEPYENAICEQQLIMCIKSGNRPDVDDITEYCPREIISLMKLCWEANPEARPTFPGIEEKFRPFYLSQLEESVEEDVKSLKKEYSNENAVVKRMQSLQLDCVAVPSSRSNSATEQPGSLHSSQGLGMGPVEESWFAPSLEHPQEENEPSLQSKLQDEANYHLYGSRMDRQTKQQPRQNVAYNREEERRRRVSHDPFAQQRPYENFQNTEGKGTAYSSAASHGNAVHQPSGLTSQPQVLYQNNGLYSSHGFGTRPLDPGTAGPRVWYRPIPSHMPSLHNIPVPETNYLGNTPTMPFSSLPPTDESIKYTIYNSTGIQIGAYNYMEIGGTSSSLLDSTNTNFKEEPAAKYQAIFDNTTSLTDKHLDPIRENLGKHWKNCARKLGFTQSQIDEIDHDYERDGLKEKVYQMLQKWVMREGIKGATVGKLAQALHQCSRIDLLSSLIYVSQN

[16] = target: T3, Serine/threonine-protein kinase Sgk3 (Homo sapiens) (UniProt Q96BR1); assay: Selectivity interaction (KinomeScan (DiscoverX)) EUB0000618a SGK3; details: at 10 µM
T3 sequence (whole entry): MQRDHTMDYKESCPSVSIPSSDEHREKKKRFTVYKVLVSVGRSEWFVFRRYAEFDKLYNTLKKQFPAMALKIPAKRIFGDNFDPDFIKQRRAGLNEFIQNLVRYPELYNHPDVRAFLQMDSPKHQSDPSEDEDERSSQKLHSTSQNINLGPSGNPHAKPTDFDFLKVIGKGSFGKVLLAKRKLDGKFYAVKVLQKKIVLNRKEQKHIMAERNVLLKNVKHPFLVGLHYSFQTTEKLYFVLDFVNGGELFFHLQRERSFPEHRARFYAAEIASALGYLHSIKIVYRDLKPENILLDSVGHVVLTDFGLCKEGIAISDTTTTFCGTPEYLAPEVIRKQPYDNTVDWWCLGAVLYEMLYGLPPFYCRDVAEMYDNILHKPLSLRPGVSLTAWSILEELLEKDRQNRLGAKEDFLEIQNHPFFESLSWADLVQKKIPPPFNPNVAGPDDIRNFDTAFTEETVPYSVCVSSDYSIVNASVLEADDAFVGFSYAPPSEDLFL

[17] = target: Mitogen-activated protein kinase 3 (Homo sapiens, UniProt P27361); assay: Selectivity interaction (KinomeScan (DiscoverX)) EUB0000607a MAPK3; details: at 10 µM
Sequence of Mitogen-activated protein kinase 3 (P27361 whole entry): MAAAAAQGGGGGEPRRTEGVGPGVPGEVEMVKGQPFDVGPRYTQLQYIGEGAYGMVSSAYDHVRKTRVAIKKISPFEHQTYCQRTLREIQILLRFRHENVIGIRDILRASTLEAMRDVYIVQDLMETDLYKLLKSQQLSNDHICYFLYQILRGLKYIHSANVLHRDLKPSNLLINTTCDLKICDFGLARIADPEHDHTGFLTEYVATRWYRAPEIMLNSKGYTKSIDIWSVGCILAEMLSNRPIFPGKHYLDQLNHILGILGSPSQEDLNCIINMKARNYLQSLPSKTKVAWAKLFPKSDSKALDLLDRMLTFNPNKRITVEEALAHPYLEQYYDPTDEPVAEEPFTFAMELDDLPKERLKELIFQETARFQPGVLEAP

SMILES: Cc1cc([C@@H](C)Nc2ccccc2C(=O)O)c2nc(N3CCOCC3)cc(=O)n2c1 [AZD-6482]
% of control [1]: 100%

SMILES: COc1cc(Nc2nc(C)cc(-c3cnn4nc(OC)ccc34)n2)cc(C(F)(F)F)c1
% of control [2]: 100%
% of control [3]: 100%

% of control [4]: -10.9%
SMILES: Cn1cc(-n2cnc3c(NCc4nc5cc(Cl)c(Cl)cc5[nH]4)nc(N4CCOCC4)nc32)cn1

% of control ([5]; at 1 µM): 102%
% of control ([5]; at 5 µM): 82%
% of control ([6]; at 1 µM): 94%
% of control ([6]; at 5 µM): 88%
% of control ([7]; at 1 µM): 96%
% of control ([7]; at 5 µM): 65%
% of control ([8]; at 1 µM): 87%
% of control ([8]; at 5 µM): 61%
% of control ([9]; at 1 µM): 93%
% of control ([9]; at 5 µM): 71%
% of control ([10]; at 1 µM): 85%
% of control ([10]; at 5 µM): 64%
% of control ([11]; at 1 µM): 96%
% of control ([11]; at 5 µM): 71%
% of control ([12]; at 1 µM): 91%
% of control ([12]; at 5 µM): 82%
% of control ([13]; at 1 µM): 88%
% of control ([13]; at 5 µM): 89%
SMILES: C=CC(=O)Nc1cccc(C(=O)Nc2ccc(Nc3cc(-c4[nH]c(SC)nc4C)ccn3)cc2)c1

SMILES: CCC(=O)N1CCN(c2ccc(-n3c(=O)ccc4cnc5ccc(-c6cnc7ccccc7c6)cc5c43)cc2C(F)(F)F)CC1
% of control [14]: 65%

SMILES: CN(C)CCOc1ccc(-c2nc(-c3ccncc3)c(-c3ccc4c(c3)CC/C4=N\O)[nH]2)cc1
% of control [15]: 72%

SMILES: O[C@H]1CC[C@H](Nc2ncc3nc(Nc4c(F)cc(F)cc4F)n([C@H]4CCOC4)c3n2)CC1
% of control [16]: 100%

SMILES: CNC(=O)Nc1ccc(-c2nc(N3CC4CCC(C3)O4)c3cnn(C4CCC5(CC4)OCCO5)c3n2)cc1
% of control [17]: 97%
